In patent US20240091227A1, “Use Of 2-Phenyl-6-(1H-Imidazol-1-YL) Quinazoline For Treating Neurodegenerative Diseases, Preferably Alzheimer's Disease” (ROTTAPHARM BIOTECH S.R.L., priority 2019, published 2024):
Like-named read-outs stand apart in the source and are kept apart here.

Legend:
IL-1β = IL-1β gene expression in IL-1β-stimulated U373 MG astrocytoma cells (RT-PCR); assay type: cell-based, human; details: IL-1β 2 ng/ml
Experimental: (§1) A model of astrocytes, the human glioblastoma astrocytoma cell line U373 MG (Uppsala), was used for these experiments. Adherent cells were grown in DMEM medium supplemented with 10% FBS at 37° C. with CO2. 72 hours after plating, cells were treated for 1 h with 2-phenyl-6-(1H-imidazol-1-yl)quinazoline (CR4056) (10 μM) prepared according to EP2066653 and then stimulated with the pro-inflammatory cytokine IL-1β (2 ng/mL) for further 6 and 24 h.
(§2) At the end of incubation period, total RNA was obtained and retro-transcribed using the High-Capacity cDNA Reverse Transcription Kit (Thermo Fisher Scientific). The levels of expression of COX-2, IL-1β, IL-6 and TNFα were evaluated by RT-PCR analysis, performed using the Applied Biosystems 7500 Fast Real-Time PCR System using specific TaqMan assays and, as an endogenous control, the 18S Pre-Developed TaqMan® Assay (Thermo Fisher Scientific). The data analysis, with normalisation on 18S amplified values, was according to Thermo Fisher Scientific specific instructions for gene expression relative quantification. All individual data were the result of at least three different measurements for each sample.
(§3) Percentage of gene expression inhibition observed in U373 cells stimulated with IL-1β 2 ng/ml and exposed to 10 μM CR4056 for the indicated time.

[1] = test system: Mice treated with scopolamine; experiment: Novel object recognition in scopolamine-induced memory impairment; assay type: in vivo, mouse; details: scopolamine 1 mg/kg ip, CR4056 6 and 20 mg/kg os
Experimental: FIG. 5 reports the results of Novel Object recognition test in the model of scopolamine-induced memory loss. Data presented as % of time spent on exploration of new and old object in testing phase. *p<0.05; **P<0.01; t student test (n=6).
The novel object recognition test was used to evaluate cognitive function based on the ability of mice to recognize various object proposed in the arena test. During the training phase a pair of identical objects were placed in the cage test. 24 hours after the first phase, during the testing phase one of the two object was replaced by a new different one. Time of exploration of each object was recorded in training and testing phase. The typical approach of mice was a similar exploration of the objects in training phase and a preference for the new object during the testing phase. The administration of substances that can worsen cognitive performance (i.e., scopolamine) caused the deletion of reminder of the old object and an equal exploration of 2 different objects. Scopolamine 1 mg/kg was administered ip 20 minutes before the training, whereas CR4056 6 and 20 mg/kg was administered os 40 minutes before the training.

PKCε = PKCε translocation to the plasma membrane in cultured dorsal root ganglia neurons; assay type: cell-based, rat; details: for IC50: rat DRG neurons
Experimental: FIG. 1 reports the time-course (A) and washout (B) of CR4056 effect on PKCF translocation induced by bradykinin (BK 1 μM). In Panel A, open symbols represent the percentage of neurons positive for PKCF translocation following BK stimulation in absence of the drug. Filled symbols represent neurons pre-incubated with CR4056 ([…]) for different times before the stimulation for 30 seconds with BK+CR4056. The first filled symbol indicates the effect of CR4056 co-incubated for 30 seconds with BK, the second filled symbol indicates 10 seconds of pre-incubation of CR4056, and the last indicates 24 hours of pre-incubation of CR4056. […] In Panel B, BK-induced PKCF translocation was evaluated before (open symbol) and after pre-incubation of CR4056 ([…]) at different time intervals (from 10 minutes to 8 hours) (filled symbols). The first datapoint was obtained at the end of the 10 minute pre-incubation, when CR4056 was still present. The subsequent datapoints were obtained after extensive rinsing to ensure complete removal of the drug from extracellular solution (n=3).
Rat dorsal root ganglia (DRGs) were obtained from freshly isolated spines after carefully removing nerve trunks and connective tissue. Larger ganglia, chopped into 2-4 smaller pieces were then incubated for 1 hour at 37° C. in 0.125% collagenase (Worthington, Freehold, NJ) dissolved in Dulbecco's modified Eagle's medium (DMEM) containing 10% fetal bovine serum (FBS) plus 1% penicillin/streptomycin and 1% L-glutamine (Euroclone, Milan, Italy). After enzymatic digestion, ganglia were mechanically dissociated and neurons plated at a density such that neurons would cover about 30% of coverslip surface in a single layer, in petri dishes containing wells with a glass bottom coverslip (pre-coated with 10 μg/mL poly-L-lysine and 20 µg/ml laminin, Sigma-Aldrich, Milan, Italy). Cells were incubated for 2-3 days in DMEM as described above, plus 1.5 μg/ml cytosine 1-d-arabinofuranoside (ARA-C, Sigma-Aldrich) to slow down proliferation of non neuronal cells, and 100 ng/ml nerve growth factor (NGF, Sigma-Aldrich) to increase cell health and the and the expression of receptors which are linked to PKCF translocation upon stimulation. Activation of membrane receptors coupled to phospholipase C pathway leads to PKCF translocation from cytoplasm to the plasma membrane. In order to study PKCε behaviour a well established technique was employed (Vellani V, Neuroscience, 2006). […] CR4056 was pre-applied in the culture medium for 10 min or co-applied with the stimulus. After fixation, cells were permeabilized with 0.2% Triton X-100 (Sigma-Aldrich, Milan, Italy) and exposed overnight to a rabbit polyclonal antibody highly specific for PKCF. After extensive rinsing, PKCF was visualized with a secondary antibody (1:200 dilution Alexa Fluor 488 goat anti-rabbit, Thermo Fisher Scientific, Monza, Italy) applied for 2-4 hours at room temperature in the dark Cells showing PKCF translocation were detected with a confocal microscope (Leica SP2, Leica, Switzerland) by measuring fluorescence intensity along a line drawn through the cytoplasm and the membrane, thus avoiding the nucleus. Neurons in which fluorescence intensity at the plasma membrane throughout the cell was 1.5-fold or higher than the mean cytoplasmic intensity were considered positive.

IL-6 = IL-6 gene expression in IL-1β-stimulated U373 MG astrocytoma cells (RT-PCR); assay type: cell-based, human; details: IL-1β 2 ng/ml
Experimental: as §1, §2, §3

[2] = 10 μM, 10 minute application, then washout

c1ccc(-c2ncc3cc(-n4ccnc4)ccc3n2)cc1 [CR4056, 2-phenyl-6-(1H-imidazol-1-yl)quinazoline]
Percentage of gene expression inhibition, IL-1β (IL-1β; 10 μM CR4056, 6 h): 20% | Percentage of gene expression inhibition, IL-1β (IL-1β; 10 μM CR4056, 24 h): 29% | Time of exploration of the new object in testing phase, novel object recognition [1]: increased the time of exploration of the new object | Time after washout during which the effect remained unchanged (PKCε; [2]): up to 1 hour | Time after washout to complete reversal of the effect (PKCε; [2]): 3 to 4 h | Influence of preincubation time on inhibition of PKCF translocation (PKCε; 10 μM, preincubation prolonged up to 24 hours or reduced to 10 seconds): did not change the extent of the effect | Effect on BK-induced PKCF translocation, time-course (FIG. 1A) (PKCε; CR4056 10 M, co-incubation 30 seconds to 24 hours pre-incubation, BK 1 μM, t-test p<0.05, n=6): highly significant at all times | Concentration at which the dose-response curves approached saturation (PKCε; CR4056 applied for 10 minutes): about 10 μM | IC50 (PKCε; bradykinin stimulus, read-out: IC50, inhibition of PKCF translocation obtained with BK): 200 nM | IC50 (PKCε; prokineticin 2 stimulus, read-out: IC50, inhibition of PKCF translocation obtained with PK2): 170 nM | Percentage of gene expression inhibition, IL-6 (IL-6; 10 μM CR4056, 6 h): not yet modulated | Percentage of gene expression inhibition, IL-6 (IL-6; 10 μM CR4056, 24 h): 39%
